Assay results from patent US4636498A, “Formulation of antiinflammatory drugs” (Pfizer Inc., priority 1985, dated 1987).
Several values for one entry are separate records, joined by “and”; a condition that tells them apart may be missing. Equal values may be shown once. Where a name gives a salt, the structure may show the parent alone. Read-outs that look alike come from different tables or passages of the source.

Tests used:
[1] = test system: indomethacin-induced gastric lesions; assay: Prevention of indomethacin-induced gastric lesions in rats; format: in vivo, rat (male, CD strain); conditions: for ED50: Rattus norvegicus, po, mg/kg of free base, read-out: ID50 (the source's name)
Text: Rats for testing were ordered to arrive the week before being tested, and acclimated that first week. Male, CD strain rats were used. By ordering at 100-125 grams, body weights during the second week generally ranged from 150-200 grams. Rats were fasted the day before the test, with food removed from the gang cages no later than 4 p.m. Following an overnight fast a loss of 15-20 grams body weight was anticipated, so volumes of test solutions required for the following day could be estimated. Water was allowed ad lib overnight and during the test itself. On the test day both oral and intraperitoneal dosing was done with volumes of 4.0 ml/kg. Therefore, by knowing approximate body weights (and therefore required volumes) as well as drug doses (mg/kg) to be used, the amount of antiulcer drug and indomethacin needed was determined and preweighed into test tubes the day before the test. The antiulcer drugs to be tested, in the form of their dihydrochloride salts, were put into solution or suspended. Distilled water was normally the vehicle used. Indomethacin was suspended in saline and homogenized with a small drop of Tween 80 (polysorbate 80) to prevent aggregation of particles. The indomethacin will not stay suspended in the saline, and it is critical that the test tube be well vortexed and the drug resuspended before each dose is drawn into a syringe. A random sample of the rats to be tested (usually about 20% of the total test group) was used to determine average body weight of the group. […] The rats were removed from the gang cage, given the test drug or vehicle p.o., and placed in individual cages. The timing of antiulcer drug dosing relative to the indomethacin challenge varied depending on the specific protocol used. As a typical test consisted of 7 groups of 7 rats each, a predose time of 45 minutes was conveniently used. This allowed about one minute to orally dose each rat. Indomethacin was administered i.p. after the predose time had elapsed. In the typical test mentioned above, this required going back to the first rat and beginning indomethacin injections as soon as the drug dosing was completed. To keep the predose time consistent, rats were also given the indomethacin at a rate of about one per minute. If the test compound was not expected to have a long duration of action, it was desirable to administer a second dose of antiulcer drug during the test. The typical time between indomethacin administration and sacrifice is 6.5 hours. […] Of course, control animals were also dosed with vehicle at this time. The rats were sacrificed 6.5 hours after administration of the indomethacin. The stomachs were excised, opened along the greater curvature, and rinsed under running water. Lightly rubbing the mucosa while holding it in the stream of water helped to remove some mucus and large clots of blood, but vigorous rubbing was avoided as it may dislodge blood from the indomethacin-induced hemorrhagic erosions, making the erosions extremely difficult to see. Next the stomachs were placed flat, mucosa side up, on a tray covered with saline-soaked towels. The lesions were then counted, or the stomachs held overnight for examination the following day. If they were stored overnight, the stomachs were first moistened with saline and placed in a polyethylene bag and in a refrigerator. The indomethacin-induced gastric lesions usually appeared as dark brown or black colored erosions in the corpus (the acid-secreting portion) of the stomach. The dark coloration is caused by the action of the gastric acid on blood within the erosion. Lesions were either punctate or linear in nature. Quantitative determination of lesion size has shown that the average lesion length is about 1 mm. Regardless of size, each individual lesion was counted as one. However, if one group of animals obviously had lesions of a different nature than the controls, this fact was recorded. […]

[2] = test system: piroxicam-induced gastric lesions; assay: Piroxicam-induced gastric lesions in rats; format: in vivo, rat (male, CD strain, Sprague-Dawley)
Description: Adult male "specific pathogen free" rats weighing 140-160 grams of the CD strain (Sprague-Dawley) were obtained from Charles River Breeding Laboratories (Kingston, N.Y.). The animals were acclimated for approximately one week and tested when they reached a body weight of 200-225 grams. The rats were fasted for 16 hours and randomized into groups consisting of 8 to 10 animals which were normalized with regard to their average body weight. Gastric ulcers were induced in the animals by orally dosing the animals with a single 100 mg/kg dose of piroxicam solution containing the drug dissolved in 2 ml 0.1% methylcellulose in water (pH=6.8). Those animals receiving 2-guanidino-4-(2-methyl-4-imidazolyl)thiazole (0.3, 1.0, 3.3 or 10.0 mg/kg as the dihydrochloride salt) separately received that drug, dissolved in an additional 2 ml of the same medium, at about the same time. Six and one-half hours later, the animals were sacrificed by cervical dislocation and autopsied. The stomachs were surgically removed, dissected along the greater curvature and rinsed with cold water. The stomachs were individually scored for both linear and punctate lesions. The total number of lesions was used for scoring purposes. The data obtained from each group of rats was analyzed after calculation of the mean number +/- the standard error of total gastric lesions. […]

[3] = test system: gastric lesions induced by the ethanolamine salt of piroxicam; assay: Gastric lesions in rats induced by the ethanolamine salt of piroxicam; format: in vivo, rat; conditions: for ED50: Rattus norvegicus, po, 6.5 h, linear regression analyses
Description: Adult male "specific pathogen free" rats weighing 140-160 grams of the CD strain (Sprague-Dawley) were obtained from Charles River Breeding Laboratories (Kingston, N.Y.). The animals were acclimated for approximately one week and tested when they reached a body weight of 200-225 grams. The rats were fasted for 16 hours and randomized into groups consisting of 8 to 10 animals which were normalized with regard to their average body weight. Gastric ulcers were induced in the animals by orally dosing the animals with a single 100 mg/kg dose of piroxicam solution containing the drug dissolved in 2 ml 0.1% methylcellulose in water (pH=6.8). Those animals receiving 2-guanidino-4-(2-methyl-4-imidazolyl)thiazole (0.3, 1.0, 3.3 or 10.0 mg/kg as the dihydrochloride salt) separately received that drug, dissolved in an additional 2 ml of the same medium, at about the same time. Six and one-half hours later, the animals were sacrificed by cervical dislocation and autopsied. The stomachs were surgically removed, dissected along the greater curvature and rinsed with cold water. The stomachs were individually scored for both linear and punctate lesions. The total number of lesions was used for scoring purposes. The data obtained from each group of rats was analyzed after calculation of the mean number +/- the standard error of total gastric lesions. The values obtained were also compared to the controls which received only piroxicam by the two-tailed Student's t-test for nonpaired data.
According to the preceding Example, gastric ulcers were induced by a single dose of 100 mg of the ethanolamine salt of piroxicam. Test groups received 0.3, 1.0 and 3.3 mg/kg doses of 2-guanidino-4-(2-methyl-4-imidazolyl)thiazole.
This test was repeated, using 120 mg of the ethanolamine salt of piroxicam to induce ulcers.
According to Examples 2 and 3, gastric ulcers were induced by a single dose of 120 mg of the ethanolamine salt of piroxicam. Test groups received 0.03, 0.10 and 0.33 mg/kg doses of 2-(N-pentyl-N'-guanidino)-4-(2-methyl-4-imidazolyl)thiazole dihydrochloride.

[4] = test system: adjuvant-induced arthritis; assay: Adjuvant-induced arthritis in the rat (inhibition of paw edema); format: in vivo, rat (male Wistar-Lewis); conditions: for % Inhibition of Lesions, Primary: day 4, injected paw; for % Inhibition of Lesions, Secondary: day 16, non-injected paw; for ED50: Rattus norvegicus, po, piroxicam alone, linear regression analysis
Description: Adjuvant arthritis was induced in adult male Wistar-Lewis rats weighing 250-270 grams each (Charles River Breeding Laboratories, Kingston, N.Y.) by a single subplantar injection of 1 mg of Mycobacterium butyricum (Difco Laboratories, Lot #0640-33) suspended in 0.1 ml mineral oil as described by Walz et al. (Proc. Soc. Exptl. Biol. Med., 136: 907-910, 1971). Seven rats were used in each group. Orally administered drugs were dissolved in water and dilute sodium hydroxide was added as necessary to ensure solution; control groups received only water. After neutralization of the solutions to pH 7.0, a volume of 10 ml/kg body weight was given by intubation with a blunt end, 18-gauge needle. Doses of each drug were given daily starting 1 day before the injection of adjuvant and continuing until 16 days after the induction of the arthritic lesion.
The initial hindpaw volumes (Vi) were measured on the day of adjuvant injection and the resultant swelling was determined on the injected paw (Vf - Vi) on the 4th day following the adjuvant injection. This was considered to be the primary response or lesion. The swelling (Vf - Vi) measured 16 days after adjuvant injection on the contralateral, non-injected hindpaw constituted the secondary response or lesion. The rats were weighed at the start of the experiments as well as 4 and 16 days after the induction of the disease. Percent inhibition of edema was calculated according to the following formula: [formula] […] This shift represents a 5 fold increase in the potency of piroxicam.

ethanol-induced ulcers = assay: Inhibition of ethanol-induced ulceration in rats; format: in vivo, rat (male); conditions: as dihydrobromide salt
Description: The antiulcer activity of the products of Examples 9 and 10 was also determined by an ethanol-induced rat ulcer assay. In this test, overnight fasted male rats are given drug (at 30 or 3 mg/kg) or water orally fifteen minutes prior to an orally administered dose of absolute ethanol (1.0 ml). One hour after the ethanol challenge the animals (8/group) are killed and the stomachs examined for the presence of lesions. After sacrifice the abdomen is opened and a locking hemostat placed at the pylorus. Six ml of a 4% solution of formaldehyde was injected into the stomach with a gastric feeding tube and a second locking hemostat was used to seal the esophagus. The stomach was removed, opened along the greater curvature and examined for ulceration.
The scoring system used to quantitate the ethanol-induced lesions is given below.
For each group of animals an ulcer index is calculated as follows: [formula]
The percentage inhibition of ulcers is calculated as follows: [formula]

[5] = particularly with indomethacin; cited from earlier work
[6] = Compound A oral dose 10.0 mg/kg

With `Cc1nc(-c2csc(NC(=N)N)n2)c[nH]1.Cl.Cl` [Compound A, 2-Guanidino-4-(2-methyl-4-imidazolyl)thiazole Dihydrochloride] the ED50 ([1]; single drug dose, obtained by extrapolation) was 1.4 mg/kg, the ED50 ([1]; two drug doses, obtained by extrapolation) was 1.5 mg/kg and the “Reduction in lesion number” value ([1]; lowest dose tested, 2.2 mg/kg) was 63%. For the same compound, the “Reduction of piroxicam-induced gastric lesions (in words)” value ([2]; 0.3-10 mg/kg p.o.) was “significantly reduced piroxicam-induced gastric lesions”, the ED50 ([2]; Rattus norvegicus, po, 6.5 h, linear regression analyses, piroxicam 100 mg/kg) was 0.32 mg/kg and the “Reduction in gastric lesions induced by the ethanolamine salt of piroxicam (in words)” value ([3]; 0.3-3.3 mg/kg, piroxicam ethanolamine salt 100 mg) was “significant reduction in gastric lesions”. The ED50 ([3]; piroxicam ethanolamine salt 100 mg) was 0.88 mg/kg, the ED50 ([3]; piroxicam ethanolamine salt 120 mg) was 0.3 mg/kg and the “% Inhibition of Lesions, Primary” value ([4]; Compound A oral dose 1.0 mg/kg) was 0 (6) %. The “% Inhibition of Lesions, Secondary” value ([4]; Compound A oral dose 1.0 mg/kg) was 3 (3) %, the “% Inhibition of Lesions, Primary” value ([4]; Compound A oral dose 3.3 mg/kg) was 0 (3) % and the “% Inhibition of Lesions, Secondary” value ([4]; Compound A oral dose 3.3 mg/kg) was 28 (4) %. For the same compound, the “% Inhibition of Lesions, Primary” value [4, 6] was 2 (2) %, the “% Inhibition of Lesions, Secondary” value [4, 6] was 27 (3) % and the “Activity against secondary lesions (in words)” value ([4]; compound alone) was “significant activity against secondary lesions”. For the same compound, the “Activity for primary lesions (in words)” value ([4]; compound alone) was “no significant activity” and the “ED50 against secondary lesions (in words)” value ([4]; compound alone) was “no reliable ED50 could be extrapolated”.

`CCCCCCNc1nc(-c2csc(NC(=N)N)n2)c[nH]1` [Compound B, 2-Guanidino-4-(2-hexylamino-4-imidazolyl)thiazole] gave an ED50 ([1]; two drug doses) of 10.5 mg/kg.

In the case of `Cc1nc(-c2csc(N=C(N)NCc3ccccc3)n2)c[nH]1` [Compound C, 2-(N-Benzyl-N'-guanidino)-4-(2-methyl-4-imidazolyl)thiazole Dihydrochloride], the ED50 ([1]; two drug doses) is reported as 4.4 mg/kg, the “Inhibition of ethanol-induced ulceration” value (ethanol-induced ulcers; oral dose 3 mg/kg) is reported as “at least 40%” and the “Inhibition of ethanol-induced ulceration” value (ethanol-induced ulcers; oral dose 30 mg/kg) is reported as “at least 77%”.

In the case of `N=C(N)Nc1nc(-c2c[nH]cn2)cs1` [Compound D, 2-guanidino-4-(4-imidazolyl)thiazole], the ED50 ([1]; single drug dose) is reported as 7.5 mg/kg and the ED50 ([1]; two drug doses) is reported as 2 mg/kg.

With `CCCCCNC(N)=Nc1nc(-c2c[nH]c(C)n2)cs1` [Example 10, 4-(2-Methyl-4-imidazolyl)-2-(N-pentyl-N'-guanidino)thiazole Dihydrochloride] the “Reduction in gastric lesions induced by the ethanolamine salt of piroxicam (in words)” value ([3]; Example 13, 0.03-0.33 mg/kg) was “significant reduction in gastric lesions”, the ED50 ([3]; Example 13, piroxicam ethanolamine salt 120 mg) was 0.1 mg/kg and the “Inhibition of ethanol-induced ulceration” value (ethanol-induced ulcers; oral dose 3 mg/kg) was “at least 40%”. The “Inhibition of ethanol-induced ulceration” value (ethanol-induced ulcers; oral dose 30 mg/kg) was “at least 77%”.

For `CN1C(C(=O)Nc2ccccn2)=C(O)c2ccccc2S1(=O)=O` [Piroxicam], the ED50 ([4]; 96 h, read-out: ED50 against primary lesions) was 2.6 mg/kg, the ED50 ([4]; 384 h, read-out: ED50 against secondary lesions) was 0.45 mg/kg and the “% Inhibition of Lesions, Primary” value ([4]; piroxicam oral dose 0.10 mg/kg) was 29 (4) %. The “% Inhibition of Lesions, Secondary” value ([4]; piroxicam oral dose 0.10 mg/kg, 0.1 mg/kg) was 26 (2) % and 26%, the “% Inhibition of Lesions, Primary” value ([4]; piroxicam oral dose 0.33 mg/kg) was 33 (8) % and the “% Inhibition of Lesions, Secondary” value ([4]; piroxicam oral dose 0.33 mg/kg, 0.33 mg/kg) was 43 (4) % and 43%. The “% Inhibition of Lesions, Primary” value ([4]; piroxicam oral dose 1.00 mg/kg) was 45 (7) % and the “% Inhibition of Lesions, Secondary” value ([4]; piroxicam oral dose 1.00 mg/kg, 1 mg/kg) was 64 (3) % and 64%.

For `N[C@@](CF)(Cc1c[nH]cn1)C(=O)O` [alphafluoromethylhistidine], the “Antiinflammatory activity (in words)” value [5] is listed as “synergistic antiinflammatory activity”.
